# US9018208B2, “Heterocycles as potassium channel modulators” (Icagen Inc., priority 2007, dated 2015)
# Tested on: SH-SY5Y M-currents (KCNQ2, KCNQ3 and KCNQ5)
# Test: SH-SY5Y native cell line FLIPR assay (voltage-sensitive dye DiBAC)
# Type: cell-based, mouse neuroblastoma, rat glioma hybrid cell line
# Details: FLIPR assay, SH-SY5Y native cell line; Table 2; read-out: SH-SY5Y EC50
# How it was run: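 Response is peak DiBAC fluorescence change, normalised to the maximum from a positive control agent, sampled every 30 s over 25 min. Before compound addition, SH-SY5Y cells differentiated with PGE1 plus isomethylbutylxanthine were dye-loaded for 1 h in EBSS with […] DiBAC.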
row,Structure (SMILES),EC50 [nM]
1,"O=C(Cc1ccc(F)cc1)Nc1nc2ccc(F)cn2c1-c1cccc(OC(F)(F)F)c1 [Compound 183, N-(6-fluoro-3-(3-(trifluoromethoxy)phenyl)imidazo[1,2-a]pyridin-2-yl)-2-(4-fluorophenyl) acetamide]",< 500
2,"CC(C)C(C)C(=O)Nc1nc2ccc(F)cn2c1-c1ccc(C(F)(F)F)cc1 (stereo not drawn) [Compound 184, N-(6-fluoro-3-(4-(trifluoromethyl)phenyl)imidazo[1,2-a]pyridin-2-yl)-2,3-dimethylbutanamide]",500 to 3000
3,"O=C(CC1CCC1)Nc1nc2ccc(F)cn2c1-c1ccc(C(F)(F)F)cc1 [Compound 185, 2-cyclobutyl-N-(6-fluoro-3-(4-(trifluoromethyl)phenyl)imidazo[1,2-a]pyridin-2-yl)acetamide]",< 500
4,"Cc1ccc2nc(NC(=O)Cc3ccc(C(F)(F)F)cc3)c(-c3ccc(F)cc3)n2c1 [Compound 186, N-(3-(4-fluorophenyl)-6-methylimidazo[1,2-a]pyridin-2-yl)-2-(4-(trifluoromethyl)phenyl)acetamide]",< 500
5,"Cc1ccn2c(-c3ccc(F)cc3)c(NC(=O)Cc3ccc(C(F)(F)F)cc3)nc2c1 [Compound 187, N-(3-(4-fluorophenyl)-7-methylimidazo[1,2-a]pyridin-2-yl)-2-(4-(trifluoromethyl)phenyl)acetamide]",< 500
6,"CC(C)(C)CCC(=O)Nc1nc2ccc(F)cn2c1-c1ccc(C(F)(F)F)cc1 [Compound 188, N-(6-fluoro-3-(4-(trifluoromethyl)phenyl)imidazo[1,2-a]pyridin-2-yl)-4,4-dimethylpentanamide]",< 500
7,"CC(=O)OCC(C)(C)CC(=O)Nc1nc2ccc(F)cn2c1-c1ccc(C(F)(F)F)cc1 [Compound 189, 4-(6-fluoro-3-(4-(trifluoromethyl)phenyl)imidazo[1,2-a]pyridin-2-ylamino)-2,2-dimethyl-4-oxobutyl acetate]",3000 to 10000
8,"CC(C)(CO)CC(=O)Nc1nc2ccc(F)cn2c1-c1ccc(C(F)(F)F)cc1 [Compound 190, N-(6-fluoro-3-(4-(trifluoromethyl)phenyl)imidazo[1,2-a]pyridin-2-yl)-4-hydroxy-3,3-dimethylbutanamide]",3000 to 10000
9,"CC(=O)OCC(C)(C)CC(=O)Nc1nc2ccc(F)cn2c1-c1ccc(OC(F)(F)F)cc1 [Compound 191, 4-(6-fluoro-3-(4-(trifluoromethoxy)phenyl)imidazo[1,2-a]pyridin-2-ylamino)-2,2-dimethyl-4-oxobutyl acetate]",3000 to 10000
10,"CC(C)(CO)CC(=O)Nc1nc2ccc(F)cn2c1-c1ccc(OC(F)(F)F)cc1 [Compound 192, N-(6-fluoro-3-(4-(trifluoromethoxy)phenyl)imidazo[1,2-a]pyridin-2-yl)-4-hydroxy-3,3-dimethylbutanamide]",500 to 3000
11,"CC1(CC(=O)Nc2nc3ccc(F)cn3c2-c2ccc(OC(F)(F)F)cc2)CCCC1 [Compound 193, N-(6-fluoro-3-(4-(trifluoromethoxy)phenyl)imidazo[1,2-a]pyridin-2-yl)-2-(1-methylcyclopentyl)acetamide]",< 500
12,"O=C(CC1CCC1)Nc1nc2ccc(F)cn2c1-c1ccc(OC(F)(F)F)cc1 [Compound 194, 2-cyclobutyl-N-(6-fluoro-3-(4-(trifluoromethoxy)phenyl)imidazo[1,2-a]pyridin-2-yl)acetamide]",< 500
13,"CC(CC(=O)Nc1nc2ccc(F)cn2c1-c1ccc(OC(F)(F)F)cc1)C(F)(F)F (stereo not drawn) [Compound 195, 4,4,4-trifluoro-N-(6-fluoro-3-(4-(trifluoromethoxy)phenyl)imidazo[1,2-a]pyridin-2-yl)-3-methylbutanamide]",< 500
14,"CC(C)(C)CC(=O)Nc1nc2ccc(F)cn2c1-c1ccc(F)c(C(F)F)c1 [Compound 196, N-(3-(3-(difluoromethyl)-4-fluorophenyl)-6-fluoroimidazo[1,2-a]pyridin-2-yl)-3,3-dimethylbutanamide]",< 500
15,"CC(C)(C)CC(=O)Nc1nc2ccc(F)cn2c1-c1ccc(C#N)c(F)c1 [Compound 197, N-(3-(4-cyano-3-fluorophenyl)-6-fluoroimidazo[1,2-a]pyridin-2-yl)-3,3-dimethylbutanamide]",500 to 3000
16,"CC(C)(C)CC(=O)Nc1nc2ccc(F)cn2c1-c1ccc(C(F)(F)F)c(F)c1 [Compound 199, N-(6-fluoro-3-(3-fluoro-4-(trifluoromethyl)phenyl)imidazo[1,2-a]pyridin-2-yl)-3,3-dimethylbutanamide]",< 500
17,"COc1ccc(-c2c(NC(=O)CC(C)(C)C)nc3ccc(F)cn23)cc1C(F)(F)F [Compound 200, N-(6-fluoro-3-(4-methoxy-3-(trifluoromethyl)phenyl)imidazo[1,2-a]pyridin-2-yl)-3,3-dimethylbutanamide]",< 500
18,"Cc1ccc(-c2c(NC(=O)CC(C)(C)C)nc3ccc(F)cn23)cc1F [Compound 201, N-(6-fluoro-3-(3-fluoro-4-methylphenyl)imidazo[1,2-a]pyridin-2-yl)-3,3-dimethylbutanamide]",< 500
19,"CC(C)(C)C(F)(F)C(=O)Nc1nc2ccc(F)cn2c1-c1ccc(C(F)(F)F)cc1 [Compound 202, 2,2-difluoro-N-(6-fluoro-3-(4-(trifluoromethyl)phenyl)imidazo[1,2-a]pyridin-2-yl)-3,3-dimethylbutanamide]",< 500
20,"O=C(Cc1ccc(F)cc1)Nc1nc2ccccn2c1-c1ccc(F)cc1 [Compound 203, 2-(4-fluorophenyl)-N-(3-(4-fluorophenyl)imidazo[1,2-a]pyridin-2-yl)acetamide]",500 to 3000
21,"O=C(Cc1ccc(F)cc1)Nc1nc2ccccn2c1-c1ccc(C(F)(F)F)cc1 [Compound 204, 2-(4-fluorophenyl)-N-(3-(4-(trifluoromethyl)phenyl)imidazo[1,2-a]pyridin-2-yl)acetamide]",< 500
22,"O=C(Cc1ccc(F)cc1)Nc1nc2ccccn2c1-c1ccc(OC(F)(F)F)cc1 [Compound 205, 2-(4-fluorophenyl)-N-(3-(4-(trifluoromethoxy)phenyl)imidazo[1,2-a]pyridin-2-yl)acetamide]",< 500
23,"CC(C)(C)OCC(=O)Nc1nc2ccc(F)cn2c1-c1ccc(C(F)(F)F)cc1 [Compound 206, 2-tert-butoxy-N-(6-fluoro-3-(4-(trifluoromethyl)phenyl)imidazo[1,2-a]pyridin-2-yl)acetamide]",3000 to 10000
24,"O=C(Cc1ccccc1)Nc1nc2ccc(F)cn2c1-c1ccc(OC(F)(F)F)cc1 [Compound 207, N-(6-fluoro-3-(4-(trifluoromethoxy)phenyl)imidazo[1,2-a]pyridin-2-yl)-2-phenylacetamide]",< 500
25,"CC(C)(C)OCC(=O)Nc1nc2ccc(F)cn2c1-c1ccc(OC(F)(F)F)cc1 [Compound 208, 2-tert-butoxy-N-(6-fluoro-3-(4-(trifluoromethoxy)phenyl)imidazo[1,2-a]pyridin-2-yl)acetamide]",3000 to 10000
26,"CC(CC(=O)Nc1nc2ccc(F)cn2c1-c1ccc(F)c(F)c1)C(F)(F)F (stereo not drawn) [Compound 209, N-(3-(3,4-difluorophenyl)-6-fluoroimidazo[1,2-a]pyridin-2-yl)-4,4,4-trifluoro-3-methylbutanamide]",< 500
27,"O=C(Cc1ccc(F)cc1)Nc1nc2ccc(F)cn2c1-c1ccc(F)c(F)c1 [Compound 210, N-(3-(3,4-difluorophenyl)-6-fluoroimidazo[1,2-a]pyridin-2-yl)-2-(4-fluorophenyl)acetamide]",< 500
